“And” between values parts separate entries of the source, which are not always exact repeats. Equal entries are not always repeated.
Legend:
[1] = Spontaneous activity in the home cage (RFID, TraffiCage); assay type: in vivo, rat; conditions: for activity: hight-fat diet, 5mg/kg, after first administration, 5 mg/kg
Procedure: Rat spontaneous activity was monitored for 24 h on the 1st and 24th (after multiple administrations of tested compound or vehicle) day of treatment with a radio-frequency identification system (RFID system)—TraffiCage (TSE-Systems, Germany)—transponder-based activity monitoring under group housing. The animals had subcutaneously implanted transponder identification with RFID code, which allowed the presence and time spent in different areas of the home cage to be recorded. The data were collected with a dedicated platform, placed under the home cage, containing five RFID antennas (six cage areas) reading telemetrically the presence of RFID chips and stored for analysis with a dedicated computer program. The animals during the monitoring of spontaneous activity were in home cages and always had free access to food and water.

[2] = Core body temperature of obese rats (implanted logger); assay type: in vivo, rat; conditions: for temperature after administration: hight-fat diet, 5mg/kg, individual rats 1-6
Procedure: Animals with induced obesity (two more groups) were subcutaneously implanted with a DST micro-HRT heart rate logger (Star-Oddi, Island), which simultaneously measured long-term core temperature. Under general anesthesia (thiopental, 70 mg/kg, ip), the loggers were inserted under the skin in the groin area and sutured with a surgical thread. Forty-eight hours later, the baseline temperature was measured, and at 9:30 AM, 4-OH-Guanabenz was administered ip at a dose of 5 mg/kg b.w. The first measurement was recorded 30 min after the administration of the test compound, and then, the temperature was recorded every hour. After 24 h, the loggers were removed, the temperature data were read, and Mercury software (Star-Oddi Mercury Data Logger PC Software, Iceland) was used to collect and analyze the information obtained. Using this technology, measurements are made without the direct intervention of the researcher; therefore, there is no disturbance in the readings evoked by stress in the animals.

[3] = Plasma glucose, triglyceride and total cholesterol of obese rats; assay type: in vivo, rat; conditions: for plasma glucose concentration / plasma total cholesterol concentration / plasma triglyceride concentration: high-fat diet, single rats 1-6
Procedure: On the 26th day of the experiment, 20 min after ip administration of heparin (5000 IU/rat) and thiopental (70 mg/kg b.w.), plasma was collected from the left carotid artery and then centrifuged at 600 × g (15 min, 4 °C) to obtain the plasma.
To determine the glucose, triglyceride, or cholesterol level in plasma, standard enzyme and spectrophotometric tests (Biomaxima S.A. Lublin, Poland) were used. The substrate was decomposed with enzymes appropriate for the relevant product, which was converted to a colored compound. The colouration was proportional to the concentration. The absorbance was measured at a wavelength of 500 nm.

[4] = 5 mg/kg b.w., i.p.; cited from earlier work

Cl.N=C(N)NN=Cc1c(Cl)cc(O)cc1Cl [4-OH-Guanabenz, 2-[(2,6-Dichloro-4-hydroxyphenyl)methylene]hydrazinecarboximidamide Hydrochloride]
activity ([1]; hour 2, individual rats): 241 counts and 466 counts and 407 counts and 76 counts and 54 counts
activity ([1]; hour 3, individual rats): 175 counts and 744 counts and 1081 counts and 269 counts and 412 counts
activity ([1]; hour 4, individual rats): 468 counts and 421 counts and 262 counts and 105 counts and 179 counts
activity ([1]; hour 5, individual rats): 721 counts and 62 counts and 232 counts and 2 counts and 78 counts
activity ([1]; hour 6, individual rats): 248 counts and 6* counts and 445 counts and 569 counts and 80 counts
activity ([1]; hour 7, individual rats): 1058 counts and 287 counts and 302 counts and 211 counts and 276 counts
activity ([1]; hour 8, individual rats): 513 counts and 751 counts and 432 counts (2×) and 306 counts
activity ([1]; hour 9, individual rats): 853 counts and 240 counts and 521 counts and 547 counts and 173 counts
activity ([1]; hour 10, individual rats): 276 counts and 938 counts and 536 counts and 556 counts and 142 counts
activity ([1]; hour 11, individual rats): 504 counts and 558 counts and 708 counts and 326 counts and 403 counts
activity ([1]; hour 12, individual rats): 347 counts and 440 counts and 410 counts and 404 counts and 692 counts
activity ([1]; hour 13, individual rats): 674 counts and 446 counts and 516 counts and 428 counts and 684 counts
activity ([1]; hour 14, individual rats): 437 counts and 1077* counts and 632 counts and 394 counts and 897 counts
activity ([1]; hour 15, individual rats): 692 counts and 273 counts and 929 counts and 462 counts and 743 counts
activity ([1]; hour 16, individual rats): 387 counts and 825 counts and 409 counts and 821 counts and 664 counts
activity ([1]; hour 17, individual rats): 618 counts and 1081 counts and 250 counts and 383 counts and 813 counts
activity ([1]; hour 18, individual rats): 339 counts and 628 counts and 260 counts and 133 counts and 576 counts
activity ([1]; hour 19, individual rats): 608 counts and 953 counts and 971 counts and 592 counts and 271 counts
activity ([1]; hour 20, individual rats): 298 counts and 398 counts and 614 counts and 684 counts and 663 counts
activity ([1]; hour 21, individual rats): 215 counts and 344 counts and 275 counts and 266 counts and 475 counts
effect on spontaneous activity (in words) ([1]; obese rats, after the first and 24th administration, 5 mg/kg b.w.): no effect
temperature after administration ([2]; hour 1): 37.56 ⚬C and 36.75 ⚬C and 37.32 ⚬C and 36.19 ⚬C and 36.67 ⚬C and 36.9 ⚬C
temperature after administration ([2]; hour 2): 36.89 ⚬C and 36.98 ⚬C and 36.3 ⚬C (2×) and 37.12 ⚬C and 35.67 ⚬C
temperature after administration ([2]; hour 3): 36.21 ⚬C and 36.64 ⚬C and 36.08 ⚬C and 35.74 ⚬C and 36.23 ⚬C and 35.01 ⚬C
temperature after administration ([2]; hour 4): 36.66 ⚬C and 36.98 ⚬C and 36.64 ⚬C and 35.41 ⚬C and 35.89 ⚬C and 36.48 ⚬C
temperature after administration ([2]; hour 5): 37 ⚬C and 36.98 ⚬C and 36.95 ⚬C and 36.08 ⚬C and 36.45 ⚬C and 36.9 ⚬C
temperature after administration ([2]; hour 6): 37.34 ⚬C and 36.75 ⚬C and 36.87 ⚬C and 36.44 ⚬C and 36.59 ⚬C and 36.9 ⚬C
temperature after administration ([2]; hour 7): 36.77 ⚬C and 36.64 ⚬C (2×) and 36.19 ⚬C and 36.78 ⚬C and 36.45 ⚬C
temperature after administration ([2]; hour 8): 37 ⚬C and 36.53 ⚬C and 36.75 ⚬C and 36.42 ⚬C and 36.67 ⚬C and 36.78 ⚬C
temperature after administration ([2]; hour 9): 37.34 ⚬C and 36.42 ⚬C and 36.64 ⚬C and 36.98 ⚬C and 36.78 ⚬C and 36.67 ⚬C
temperature after administration ([2]; hour 10): 37.34 ⚬C and 36.5 ⚬C and 36.87 ⚬C and 36.53 ⚬C and 36.67 ⚬C and 37.01 ⚬C
temperature after administration ([2]; hour 11): 37 ⚬C and 36.64 ⚬C and 36.08 ⚬C and 37.09 ⚬C and 36.67 ⚬C and 36.56 ⚬C
temperature after administration ([2]; hour 12): 37 ⚬C and 36.53 ⚬C (2×) and 36.87 ⚬C and 36.56 ⚬C and 37.35 ⚬C
temperature after administration ([2]; hour 13): 37.22 ⚬C and 37.09 ⚬C and 36.75 ⚬C and 36.64 ⚬C and 36.56 ⚬C and 36.67 ⚬C
temperature after administration ([2]; hour 14): 37.34 ⚬C and 36.42 ⚬C (3×) and 36.78 ⚬C and 37.12 ⚬C
temperature after administration ([2]; hour 15): 37.34 ⚬C and 36.53 ⚬C (2×) and 36.08 ⚬C and 36.56 ⚬C and 36.45 ⚬C
temperature after administration ([2]; hour 16): 37.34 ⚬C and 37.09 ⚬C and 36.64 ⚬C and 35.97 ⚬C and 36.34 ⚬C and 36.56 ⚬C
temperature after administration ([2]; hour 17): 37 ⚬C and 37.09 ⚬C and 36.53 ⚬C and 36.67 ⚬C and 36.45 ⚬C and 37.23 ⚬C
temperature after administration ([2]; hour 18): 37.45 ⚬C and 36.53 ⚬C and 36.3 ⚬C and 37.21 ⚬C and 36.56 ⚬C and 36.34 ⚬C
temperature after administration ([2]; hour 19): 36.6 ⚬C and 36.75 ⚬C and 36.53 ⚬C and 36.3 ⚬C and 36.67 ⚬C (2×)
temperature after administration ([2]; hour 20): 37.22 ⚬C and 37.32 ⚬C and 36.19 ⚬C and 35.97 ⚬C and 36.56 ⚬C and 36.23 ⚬C
temperature after administration ([2]; hour 21): 37.45 ⚬C and 36.08 ⚬C (2×) and 36.19 ⚬C and 36.78 ⚬C and 36.12 ⚬C
temperature after administration ([2]; hour 22): 36.77 ⚬C and 36.3 ⚬C and 35.86 ⚬C and 36.08 ⚬C and 36.45 ⚬C and 36.12 ⚬C
temperature after administration ([2]; hour 23): 36.89 ⚬C and 36.3 ⚬C and 36.19 ⚬C and 36.53 ⚬C and 36.34 ⚬C and 36.23 ⚬C
temperature after administration ([2]; hour 24): 36.66 ⚬C and 36.64 ⚬C and 36.3 ⚬C and 36.19 ⚬C and 36.78 ⚬C and 35.89 ⚬C
effect on core temperature (in words) ([2]; obese rats, 5 mg/kg b.w. ip, vs obese control): No significant effects on core temperature
effect on plasma total cholesterol (in words) ([3]; high-fat diet rats, 5 mg/kg b.w.): highest plasma level of total cholesterol
effect on plasma triglyceride level (in words) ([3]; high-fat diet rats, 5 mg/kg b.w., vs obese control): significantly decreased plasma triglyceride levels
plasma glucose concentration ([3]; 2mg/kg): 4.77 mmol/L and 5.43 mmol/L and 6.06 mmol/L and 5.37 mmol/L and 5.51 mmol/L
plasma total cholesterol concentration ([3]; 2mg/kg): 0.86 mmol/L and 0.71 mmol/L and 0.87 mmol/L and 0.75 mmol/L and 0.78 mmol/L and 0.93 mmol/L
plasma triglyceride concentration ([3]; 2mg/kg): 0.17 mmol/L and 0.12 mmol/L and 0.21 mmol/L and 0.13 mmol/L and 0.14 mmol/L
plasma glucose concentration ([3]; 5mg/kg): 4.45 mmol/L and 5.37 mmol/L and 4.63 mmol/L and 5.39 mmol/L and 3.28 mmol/L and 4.68 mmol/L
plasma total cholesterol concentration ([3]; 5mg/kg): 0.93 mmol/L and 0.87 mmol/L and 0.8 mmol/L and 1.08 mmol/L and 0.88 mmol/L and 0.84 mmol/L
plasma triglyceride concentration ([3]; 5mg/kg): 0.12 mmol/L and 0.2 mmol/L and 0.1 mmol/L and 0.13 mmol/L and 0.18 mmol/L
effect on blood glucose level (in words) ([3]; obese rats, both doses (2 or 5 mg/kg b.w.), vs obese animals treated with water): significantly lower blood glucose levels

N=C(N)N/N=C/c1c(Cl)cccc1Cl [Guanabenz]
Body weight of obese animals [4]: ↓ [17]

Reference: PMC10539439 (Pharmacological Reports, 2023)
